Common to all, as to type: cell-based
What all share (set-up): Cryopreserved healthy donor human peripheral blood mononuclear cells; endogenous in cells; host or cells: primary human PBMC, CD8+ T cells read by flow cytometry
A general note: In flow cytometry, cells or beads pass a laser one at a time.

The target of one experiment is IKZF3 Aiolos (Homo sapiens, UniProt Q96SW2+Q9UKT9). The experiment can be described thus: Human CD8+ T Cell Reprogramming Assay (IKZF3 Aiolos). On the procedure:
(§1) Cryopreserved healthy donor human peripheral blood mononuclear cells (PBMC) from healthy donors were thawed and seeded at 500,000 cells/well of 96-well round bottom plates in RPMI 1640 media (Gibco) supplemented with 10% FBS, Pen/Strep (Gibco), MEM-NEAA (Gibco), and sodium pyruvate (Gibco). Cells were treated with titrated doses of compound for 24 hours at 37° C., 5% CO2 before analyzing by flow cytometry.
(§2) For flow cytometry staining, cells were washed twice with flow cytometry staining buffer (Thermo Fisher) and incubated in Human Tru-stain Fc block (Biolegend) for 10 minutes before adding eFluor780 viability dye (Thermo Fisher) and surface marker antibody cocktail containing LD-eFluor780, CD3-BUV-395, CD4-BUV805, CD8-FITC, and CD25-BV605 for 30 minutes at 4° C. Cells were then fixed and permeabilized by incubation with permeabilization buffer (eBioscience FoxP3 buffer set 00-5523-00) for 30 minutes at 4° C. as per the kit manufacturer's instructions. Cells were washed twice with the Perm/Wash buffer supplied in the kit as per the manufacturer's instructions and incubated overnight at 4° C. with an intracellular antibody cocktail comprised of antibodies specific for the transcription factors (i.e., Foxp3-BV421, HELIOS-PE-Cy7, EOS-PE, IKAROS-PECF594, AIOLOS-AF647). Cells were washed twice with Perm/Wash buffer and resuspended in flow cytometry staining buffer (Thermo Fisher) prior to acquisition. Sample acquisition and analysis was performed using a BD LSRFortessa (BD Biosciences) flow cytometer. Single-stain controls for each fluorochrome were prepared using UltraComp eBead Compensation Beads (Thermo Fisher). Data were analyzed using FlowJo version 10 and GraphPad Prism Software.
(§3) Table D-1 lists the maximum observed degradation of the IKZF1 protein and IKZF3 protein as measured in the Human CD8^+ T Cell Reprogramming assay. The results in Table D-1 were rounded to two digits. In the Human CD8^+ T Cell Reprogramming assay, a value of 100% indicated no detectable protein remaining or complete degradation of the protein; and a value of 0% indicated no detectable degradation of the protein by the test compound.

In experiment [1] the target is T1, IKZF1 Ikaros (Homo sapiens, UniProt Q13422+Q96SW2). Description: Human CD8+ T Cell Reprogramming Assay (IKZF1 Ikaros). The procedure:
as §1, §2, §3

For experiment [2], the target named is T1, IKZF1 Ikaros. Description: Human Regulatory T Cell Degradation Assay (IKZF1 Ikaros). The conditions noted are these: human regulatory T cells, 20 hours, 100% = no detectable protein remaining, read-out: IKZF1 Ikaros max % deg. observed. The procedure: Cryopreserved human regulatory T cells were thawed in RPMI+10% FBS+20 ng/mL IL-2. After being spun at 1200 rpm for 5 mins, the cells were resuspended in RPMI+10% FBS+20 ng/ml and rested at 37° C. with 5% CO2 for 3 hours. The cells were then plated at 40,000 cells/well in 40 μL RPMI+10% FBS+20 ng/ml human IL~2 in a 384 well cell culture plate prior to using acoustic dispensing technology (ECHO 555) for adding compounds of interest. Cell cultures were incubated for 20 hours at 37° C. and 5% CO2. In order to facilitate analysis, cell cultures were spun down at 1200 rpm for 5 minutes and the supernatant was discarded using an EL406 plate washer. After washing three times with 70 μL PBS, cell pellets were resuspended in 50 μL of near IR viability staining solution (Life Technologies, Cat #L34975) and incubated for 30 minutes on ice protected from light. Cells were washed three times with 70 μL PBS+0.5% BSA using an EL406 plate washer. After shaking the plate to dislodge the cell pellet, cells were resuspended in 50 μL of Fixation Buffer (eBioScience FoxP3 buffer set 00-5523-00) for 60 minutes at room temperature. After centrifuging and discarding the supernatant, cells were permeabilized with 50 μL of permeabilization buffer (eBioScience FoxP3 buffer set 00-5523-00) for 10 minutes at room temperature. Following permeabilization, cells were spun down and the supernatant was replaced with 30 μL fluorescently labelled antibodies against the intracellular targets Helios (Helios-APC [BioLegend, Cat #137222, 1:50])]), Aiolos, and Ikaros Ix Permeabilization buffer and staining reactions were incubated for 1 hour at room temperature; protected from light. Subsequently, 30 μL of 1× Permeabilization buffer was added prior to centrifuging the cells and discarding the supernatant. Stained cells were resuspended in 30 μL of flow cytometry staining buffer (PBS+0.5% BSA) and analyzed using an Intellicyt Ique Plus flow cytometer.
Table B-1 lists the maximum observed degradation of the IKZF1 protein and IKZF2 protein as measured in the Human Regulatory Cell T Degradation assay. […]

Setting [3] is: human PBMC, CD8+ T cells, 24 hours, read-out: Maximum Observed Degradation IKZF3 Aiolos.
[4] abbreviates: human PBMC, CD8+ T cells, 24 hours, read-out: Maximum Observed Degradation IKZF1 Ikaros.
[5] abbreviates: human, 24 h, Table D-1, read-out: decreased the level of IKZF1 (Ikaros).
Setting [6] is: human PBMC, CD8+ T cells, 24 hours, concentration reducing protein level by 50% vs DMSO.

SMILES strings stand for the structures. Where two headings read alike, the source gives them in different places.

T1 sequence (Q13422 whole entry): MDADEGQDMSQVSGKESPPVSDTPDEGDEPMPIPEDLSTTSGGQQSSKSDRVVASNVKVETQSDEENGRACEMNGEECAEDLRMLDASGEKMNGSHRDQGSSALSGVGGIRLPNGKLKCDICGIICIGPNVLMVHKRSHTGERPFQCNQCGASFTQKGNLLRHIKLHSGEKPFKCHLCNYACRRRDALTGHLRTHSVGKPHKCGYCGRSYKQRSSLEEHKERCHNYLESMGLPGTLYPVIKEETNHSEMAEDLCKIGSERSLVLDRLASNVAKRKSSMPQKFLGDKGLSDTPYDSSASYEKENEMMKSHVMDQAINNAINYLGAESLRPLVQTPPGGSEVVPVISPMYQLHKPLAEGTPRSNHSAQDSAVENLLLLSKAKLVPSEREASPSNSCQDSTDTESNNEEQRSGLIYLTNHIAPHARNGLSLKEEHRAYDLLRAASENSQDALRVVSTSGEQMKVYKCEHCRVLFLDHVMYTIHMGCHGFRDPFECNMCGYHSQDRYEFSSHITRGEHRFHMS
T1 sequence (Q96SW2 whole entry): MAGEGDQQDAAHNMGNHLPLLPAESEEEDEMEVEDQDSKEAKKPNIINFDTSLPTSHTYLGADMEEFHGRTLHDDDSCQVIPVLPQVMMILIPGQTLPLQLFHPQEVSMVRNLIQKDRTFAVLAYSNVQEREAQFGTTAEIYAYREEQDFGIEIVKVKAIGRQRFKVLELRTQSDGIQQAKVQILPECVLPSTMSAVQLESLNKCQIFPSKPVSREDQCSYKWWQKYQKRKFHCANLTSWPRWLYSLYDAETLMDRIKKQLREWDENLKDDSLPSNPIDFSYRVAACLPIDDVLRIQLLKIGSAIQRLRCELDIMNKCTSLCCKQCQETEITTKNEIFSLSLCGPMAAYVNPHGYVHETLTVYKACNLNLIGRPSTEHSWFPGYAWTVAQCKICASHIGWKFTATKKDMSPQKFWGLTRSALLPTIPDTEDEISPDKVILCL
T1 sequence (Q16531 whole entry partner): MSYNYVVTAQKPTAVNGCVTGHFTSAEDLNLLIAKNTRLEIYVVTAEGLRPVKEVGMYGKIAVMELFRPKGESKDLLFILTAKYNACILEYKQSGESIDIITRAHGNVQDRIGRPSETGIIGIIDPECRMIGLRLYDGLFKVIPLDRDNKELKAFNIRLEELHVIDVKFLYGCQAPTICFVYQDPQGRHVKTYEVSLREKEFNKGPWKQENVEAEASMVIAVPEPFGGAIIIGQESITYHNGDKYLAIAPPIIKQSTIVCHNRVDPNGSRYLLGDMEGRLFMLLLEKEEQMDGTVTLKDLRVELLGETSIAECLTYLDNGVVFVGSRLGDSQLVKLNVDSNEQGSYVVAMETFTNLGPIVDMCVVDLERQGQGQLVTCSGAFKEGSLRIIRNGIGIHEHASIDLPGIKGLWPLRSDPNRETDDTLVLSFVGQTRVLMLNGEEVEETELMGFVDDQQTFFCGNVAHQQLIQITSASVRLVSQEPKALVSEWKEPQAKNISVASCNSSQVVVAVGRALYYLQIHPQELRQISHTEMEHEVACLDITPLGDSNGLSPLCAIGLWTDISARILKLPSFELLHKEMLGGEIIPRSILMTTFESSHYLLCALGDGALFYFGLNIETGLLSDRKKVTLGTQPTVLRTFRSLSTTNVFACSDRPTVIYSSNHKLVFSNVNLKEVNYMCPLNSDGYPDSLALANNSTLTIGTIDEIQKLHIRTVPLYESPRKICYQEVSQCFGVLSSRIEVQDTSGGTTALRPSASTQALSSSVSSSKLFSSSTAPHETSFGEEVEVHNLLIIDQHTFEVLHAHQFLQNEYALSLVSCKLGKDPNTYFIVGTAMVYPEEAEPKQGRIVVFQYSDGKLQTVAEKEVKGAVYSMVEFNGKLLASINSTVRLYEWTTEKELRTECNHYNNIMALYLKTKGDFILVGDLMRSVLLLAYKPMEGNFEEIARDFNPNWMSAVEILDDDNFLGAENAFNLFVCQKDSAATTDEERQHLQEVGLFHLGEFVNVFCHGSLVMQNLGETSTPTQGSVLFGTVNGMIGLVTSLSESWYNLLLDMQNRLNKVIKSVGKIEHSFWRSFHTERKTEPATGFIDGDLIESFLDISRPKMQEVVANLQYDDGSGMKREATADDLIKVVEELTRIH
Chain of IKZF3 Aiolos (Q9UKT9 whole entry): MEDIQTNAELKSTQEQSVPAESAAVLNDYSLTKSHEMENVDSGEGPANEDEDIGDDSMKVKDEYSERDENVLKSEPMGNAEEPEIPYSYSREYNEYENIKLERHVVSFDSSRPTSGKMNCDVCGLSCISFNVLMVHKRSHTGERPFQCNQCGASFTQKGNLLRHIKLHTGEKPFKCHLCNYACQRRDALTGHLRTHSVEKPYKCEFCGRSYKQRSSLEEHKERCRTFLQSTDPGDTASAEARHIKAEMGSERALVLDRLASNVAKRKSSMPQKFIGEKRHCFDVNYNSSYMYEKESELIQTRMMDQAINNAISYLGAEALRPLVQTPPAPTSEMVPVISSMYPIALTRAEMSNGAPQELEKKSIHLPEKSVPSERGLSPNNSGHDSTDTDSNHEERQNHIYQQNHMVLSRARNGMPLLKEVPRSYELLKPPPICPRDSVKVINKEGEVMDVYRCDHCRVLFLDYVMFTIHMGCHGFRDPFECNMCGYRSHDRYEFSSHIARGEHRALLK
Chain of IKZF3 Aiolos (Q96SW2 whole entry): as the sequence (Q96SW2 whole entry) above
Chain of IKZF3 Aiolos (Q16531 whole entry partner): as the sequence (Q16531 whole entry partner) above

Regarding `O=C1CCC(N2Cc3c(ccc(-c4cc(CN5CC(c6ccccc6)C5)ccn4)c3F)C2=O)C(=O)N1` (centres unmarked) [Comparative Compound A, 3-(4-fluoro-1-oxo-5-(4-((3-phenylazetidin-1-yl)methyl)pyridin-2-yl)isoindolin-2-yl) piperidine-2,6-dione], the Dmax at IKZF3 Aiolos (setting [3]) is 39%; at IKZF1 Ikaros [1] (setting [4]), 20%; on IKZF1 Ikaros [1] (setting [5]), no more than 20%; on IKZF1 Ikaros [2], 19%.
On the same counts, the results for `Nc1nc(-c2ccc3c(c2)CN(C2CCC(=O)NC2=O)C3=O)ccc1CN1CC2(CCC2)C1` (centres unmarked) [Comparative Compound B, 3-(5-(5-((2-azaspiro[3.3]heptan-2-yl)methyl)-6-aminopyridin-2-yl)-1-oxoisoindolin-2-yl) piperidine-2,6-dione] are 2%, 11%, no more than 20% and 37%.
For `Nc1nc(-c2ccc3c(c2F)CN(C2CCC(=O)NC2=O)C3=O)ccc1CN1CC2(CCCOC2)C1` (centres unmarked) [Example 1, 3-(5-(5-((6-oxa-2-azaspiro[3.5]nonan-2-yl)methyl)-6-aminopyridin-2-yl)-4-fluoro-1-oxoisoindolin-2-yl) piperidine-2,6-dione], the results for the DC50 on IKZF3 Aiolos (setting [6]) and at IKZF1 Ikaros [1] (setting [6]) were 23 to 35 nM and 29 to 43 nM, respectively. Moreover, the Dmax at IKZF3 Aiolos (setting [3]) fell in the range of 62 to 66%; on IKZF3 Aiolos (human, 24 h, Table D-1, read-out: decreased the level of IKZF3 (Aiolos)), 62 to 66%; at IKZF3 Aiolos (human, 24 h, Table E comparison, from Table D-1, read-out: IKZF3 Aiolos max % deg. observed) it was 62 to 66%; at IKZF1 Ikaros [1] (setting [4]), 64 to 65%; on IKZF1 Ikaros [1] (setting [5]), 64 to 65%; on IKZF1 Ikaros [1] (human, 24 h, Table E comparison, from Table D-1, read-out: IKZF1 Ikaros max % deg. observed), 64 to 65%. The Dmax at IKZF1 Ikaros [2] was found to be 49%.

The values are drawn from US20260297106A1, “SPIROCYCLIC SUBSTITUTED OXOISOINDOLINYL PIPERIDINE-2,6-DIONE COMPOUND” (Bristol-Myers Squibb Company, priority 2023, published 2026).
